Source: PubChem BioAssay (NCI)
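In this assay, cells in 96-well plates receive the compound at five concentrations for 48 hours. Endpoints are linearly interpolated between the surrounding concentrations. At the GI50, growth is halved. TGI denotes the concentration required for complete inhibition of growth.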

Tests used:
Test in all cases: DTP human tumour cell line panel, 48 h
SNB-75 CNS = system: SNB-75 CNS
BT-549 breast = system: BT-549 breast
SF-268 CNS = system: SF-268 CNS
TK-10 renal = system: TK-10 renal
MDA-MB-231 breast = system: MDA-MB-231 breast
K-562 leukemia = system: K-562 leukemia
SN12C renal = system: SN12C renal
COLO 205 colon = system: COLO 205 colon
A549 NSCLC = system: A549 NSCLC
EKVX NSCLC = system: EKVX NSCLC

| SMILES | GI50 (SNB-75 CNS) [µM] | TGI (SNB-75 CNS) [µM] | GI50 (BT-549 breast) [µM] | TGI (BT-549 breast) [µM] | GI50 (SF-268 CNS) [µM] | TGI (SF-268 CNS) [µM] | GI50 (TK-10 renal) [µM] | TGI (TK-10 renal) [µM] | GI50 (MDA-MB-231 breast) [µM] | TGI (MDA-MB-231 breast) [µM] | GI50 (K-562 leukemia) [µM] | TGI (K-562 leukemia) [µM] | GI50 (SN12C renal) [µM] | TGI (SN12C renal) [µM] | GI50 (COLO 205 colon) [µM] | TGI (COLO 205 colon) [µM] | GI50 (A549 NSCLC) [µM] | TGI (A549 NSCLC) [µM] | TGI (EKVX NSCLC) [µM] | GI50 (EKVX NSCLC) [µM] |
| --- | --- | --- | --- | --- | --- | --- | --- | --- | --- | --- | --- | --- | --- | --- | --- | --- | --- | --- | --- | --- |
| CCCCCCCCCCCCCC(=S)NCCCC[C@H](NC(=O)OCc1ccccc1)C(=O)Nc1ccccc1 | 3.85 | > 100 | 39.6 | > 100 | 5.84 | > 100 | 4.4 | > 100 | 5.53 | > 100 | 4.21 | > 100 | 3.81 | > 100 | 3.87 | 22.5 | 6.31 | > 100 |  |  |
| CCOc1ccc(NC(=O)CC2Sc3ccccc3NC2=O)cc1 (stereo unspecified) |  | 95 |  |  |  | > 100 |  | > 100 |  |  |  | > 100 |  | > 100 |  | > 100 |  | > 100 | > 100 |  |
| COc1cc2c3c(cccc3c1)C(=O)N(CCN1CCCC1)C2=O | 1.63 | 3.65 | 2.95 | 8.33 | 2.48 | 9.06 | 24.8 | > 100 | 2.46 | 10.2 | 3.62 | > 100 | 2.41 | 78.5 | 1.48 | 3.28 | 1.91 | 5.31 |  |  |
| O=C(Nc1cccc(-n2ccc3c(NC(=O)c4ccccc4)nccc32)c1)c1cccc(C(F)(F)F)c1 |  |  | 0.127 | 1.3 | 0.0709 | 12.4 | 0.103 | 19.4 | 0.0533 | 1.29 | 0.0391 | > 38.2 | 0.0591 | > 59.3 |  |  | 0.043 | 2.61 | > 100 | 0.0715 |
| O=[N+]([O-])[C@@H]1C2C=CC(C2)[C@H]1Cl (stereo partly specified) |  | > 100 |  |  |  | > 100 |  | > 100 |  |  |  | > 100 |  | > 100 |  | > 100 |  | > 100 | > 100 |  |
| C[C@@H]1CC[C@H]2C(COCC3=C(C(F)(F)F)O[C@@H]4O[C@@]5(C)CC[C@H]6[C@H](C)CC[C@@H]3[C@@]46OO5)=C(C(F)(F)F)O[C@@H]3O[C@@]4(C)CC[C@@H]1[C@]32OO4 |  |  |  |  |  |  | 0.143 | > 100 | 0.037 | > 100 | < 0.01 | > 100 | 0.0439 | > 100 | < 0.01 | 0.0835 | 0.0126 | > 100 | > 100 | 0.0333 |
| O=C(C#Cc1c[nH]c(=O)[nH]c1=O)c1ccccc1Cl |  | 39.6 |  |  |  | 41.4 |  | 36.1 |  |  |  | > 100 |  | 27.5 |  | 29.8 |  | > 100 | 36.5 |  |
| CN(C)/C(=N/C(=S)Nc1ccccc1)SCc1ccccc1 |  | > 100 |  |  |  | > 100 |  | > 100 |  |  |  | > 100 |  | > 100 |  | > 100 |  | > 100 | > 100 |  |
| CN1CCN(CC#Cc2cccc(C(=O)c3cnn(-c4ccc(F)cc4)c3N)c2)CC1 | > 25 | > 25 | > 25 | > 25 | > 25 | > 25 | > 25 | > 25 | > 25 | > 25 | > 25 | > 25 | > 25 | > 25 | > 25 | > 25 | > 25 | > 25 |  |  |
